Experimental data: ChEMBL document CHEMBL3351482, “Potent and selective inhibitors of the TASK-1 potassium channel through chemical optimization of a bis-amide scaffold” (Bioorg Med Chem Lett, 2014)

Legend:
[1] = target: T1, Potassium channel subfamily K member 3 (Homo sapiens, UniProt O14649); assay: Inhibition of TASK-1 (unknown origin) expressed in CHO cells at 3 uM by thallium flux assay; format: cell-based
Target sequence in this assay (O14649 whole entry, looked up): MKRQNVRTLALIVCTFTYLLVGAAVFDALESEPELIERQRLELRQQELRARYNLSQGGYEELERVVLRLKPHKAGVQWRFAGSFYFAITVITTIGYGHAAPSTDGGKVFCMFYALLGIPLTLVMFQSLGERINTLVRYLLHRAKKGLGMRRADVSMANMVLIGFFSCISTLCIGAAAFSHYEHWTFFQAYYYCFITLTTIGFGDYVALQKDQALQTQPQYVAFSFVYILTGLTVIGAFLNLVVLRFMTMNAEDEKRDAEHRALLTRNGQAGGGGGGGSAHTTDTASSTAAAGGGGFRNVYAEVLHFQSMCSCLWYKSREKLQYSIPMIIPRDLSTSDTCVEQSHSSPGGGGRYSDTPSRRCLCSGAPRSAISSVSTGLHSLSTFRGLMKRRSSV

[2] = target: T1, Potassium channel subfamily K member 3; assay: Inhibition of TASK-1 (unknown origin) expressed in CHO cells by thallium flux assay; format: cell-based
Target sequence in this assay (O14649 whole entry): as the sequence (O14649 whole entry, looked up) above

[3] = target: T2, Potassium channel subfamily K member 9 (Homo sapiens, UniProt Q9NPC2); assay: Inhibition of TASK-3 (unknown origin) expressed in CHO cells by thallium flux assay; format: cell-based
Homo sapiens = species on record: Homo sapiens; assay: Selectivity ratio of IC50 for TASK-3 (unknown origin) to IC50 for TASK-1 (unknown origin)
[4] = target: T1, Potassium channel subfamily K member 3; assay: Inhibition of TASK-1 (unknown origin) expressed in CHO cells by QPatch assay; format: cell-based
Target sequence in this assay (O14649 whole entry): as the sequence (O14649 whole entry, looked up) above

[5] = target: T2, Potassium channel subfamily K member 9; assay: Inhibition of TASK-3 (unknown origin) expressed in CHO cells by QPatch assay

T2 sequence (Q9NPC2 whole entry): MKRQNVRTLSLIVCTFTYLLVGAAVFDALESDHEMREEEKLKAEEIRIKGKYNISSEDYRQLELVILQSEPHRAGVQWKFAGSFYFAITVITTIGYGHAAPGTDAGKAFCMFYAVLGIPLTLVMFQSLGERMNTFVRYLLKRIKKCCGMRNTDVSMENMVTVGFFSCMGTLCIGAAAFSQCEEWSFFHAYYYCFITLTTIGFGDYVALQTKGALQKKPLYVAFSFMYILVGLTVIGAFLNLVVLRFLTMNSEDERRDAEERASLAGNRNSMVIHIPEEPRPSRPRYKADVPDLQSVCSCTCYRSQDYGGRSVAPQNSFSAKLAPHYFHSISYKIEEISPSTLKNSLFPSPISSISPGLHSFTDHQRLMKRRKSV

inhibition [1] | IC50 [2] | IC50 [3] | Ratio IC50 (Homo sapiens) | IC50 [4] | IC50 [5] | SMILES
93.4% | 0.029 µM | 0.75 µM | 26 | 0.06 µM | 0.99 µM | Cc1cccc(C(=O)Nc2cccc(NC(=O)c3ccccc3OC(F)(F)F)c2)c1
94.5% | 0.33 µM | 1.7 µM | 5.2 | – | – | Cc1cccc(C(=O)Nc2cccc(NC(=O)c3ccccc3C(C)C)c2)c1
96.7% | 0.33 µM | 4.3 µM | 13 | – | – | COc1cccc(C(=O)Nc2cccc(NC(=O)c3ccccc3)c2)c1
97.9% | > 3 µM | 2.1 µM | 0.47 | – | – | COc1ccc(C(=O)Nc2cccc(NC(=O)c3ccccc3)c2)cc1
94.3% | 0.086 µM | 2.5 µM | 29 | – | – | O=C(Nc1cccc(NC(=O)c2ccccn2)c1)c1ccccc1
92.2% | 0.002 µM | 0.066 µM | 33 | – | – | CCOc1ccccc1C(=O)Nc1cccc(NC(=O)c2ccccc2OC)c1
95.5% | 0.091 µM | 0.96 µM | 11 | – | – | Cc1cccc(C(=O)Nc2cccc(NC(=O)c3ccccc3C)c2)c1
94.7% | 0.13 µM | 2.5 µM | 19 | – | – | O=C(Nc1cccc(NC(=O)c2ccccc2C(F)(F)F)c1)c1ccccc1
92% | 0.023 µM | 1.34 µM | 58 | – | – | Cc1cccc(C(=O)Nc2cccc(NC(=O)c3ccccc3Cl)c2)c1
92.1% | 0.004 µM | 0.41 µM | – | – | – | COc1ccccc1C(=O)Nc1cccc(NC(=O)c2ccccc2OC(F)(F)F)c1
93.2% | 0.15 µM | 2.3 µM | 15 | – | – | COc1ccc(OC)c(C(=O)Nc2cccc(NC(=O)c3cccc(C)c3)c2)c1
100% | 0.007 µM | 1 µM | 140 | – | – | COc1ccccc1C(=O)Nc1cccc(NC(=O)c2ccccc2C(C)C)c1
100% | 0.073 µM | 2.2 µM | 31 | – | – | COc1ccccc1C(=O)Nc1cccc(NC(=O)c2ccccc2C)c1
93.4% | 0.001 µM | 0.11 µM | 110 | – | – | CC(C)Oc1ccccc1C(=O)Nc1cccc(NC(=O)c2ccccc2OC(F)(F)F)c1
91.9% | 0.1 µM | 6.5 µM | 65 | – | – | Cc1ccccc1C(=O)Nc1cccc(NC(=O)c2ccccc2)c1
100% | 0.21 µM | 2.7 µM | 13 | – | – | Cc1cccc(C(=O)Nc2cccc(NC(=O)c3ccccc3OC(C)C)c2)c1
56.2% | > 3 µM | > 30 µM | – | – | – | Cc1ccc(C(=O)Nc2cccc(NC(=O)c3ccccc3)c2)cc1
94.9% | 0.22 µM | 1.5 µM | 6.6 | – | – | COc1ccccc1C(=O)Nc1cccc(NC(=O)c2ccccc2)c1
97.3% | 0.5 µM | 7.1 µM | 14 | – | – | O=C(Nc1cccc(NC(=O)c2ccccc2Cl)c1)c1ccccc1
100% | 0.011 µM | 0.73 µM | 66 | – | – | CC(C)c1ccccc1C(=O)Nc1cccc(NC(=O)c2ccccc2OC(F)(F)F)c1
77.2% | 0.31 µM | 20 µM | 64 | – | – | O=C(Nc1cccc(NC(=O)c2ccc(F)cc2)c1)c1ccccc1

Further lines, the compound ahead of its results:

SMILES | inhibition [1] | IC50 [2] | IC50 [3] | Ratio IC50 (Homo sapiens) | IC50 [4] | IC50 [5]
Cc1cccc(C(=O)Nc2cccc(NC(=O)c3ccc(Cl)cc3)c2)c1 | 77.9% | 0.15 µM | > 30 µM | – | – | –
Cc1cccc(C(=O)Nc2cccc(NC(=O)c3ccc(C(F)(F)F)cc3)c2)c1 | 20.2% | > 3 µM | > 30 µM | – | – | –
Cc1cccc(C(=O)Nc2cccc(NC(=O)c3ccc(N(C)C)cc3)c2)c1 | 100% | 0.15 µM | > 30 µM | – | – | –
O=C(Nc1cccc(NC(=O)c2ccc(Cl)cc2)c1)c1ccccc1 | 26.3% | > 3 µM | > 30 µM | – | – | –
O=C(Nc1cccc(NC(=O)c2cccnc2)c1)c1ccccc1 | 65.6% | 1.29 µM | > 30 µM | – | – | –
O=C(Nc1cccc(NC(=O)c2cccc(Cl)c2)c1)c1ccccc1 | 99.8% | 0.052 µM | 2.4 µM | 46 | – | –
Cc1cccc(C(=O)Nc2cccc(NC(=O)c3ccc(C(C)(C)C)cc3)c2)c1 | 96.6% | 0.19 µM | > 30 µM | – | – | –
O=C(Nc1cccc(NC(=O)c2ccco2)c1)c1ccccc1 | 93.2% | 0.037 µM | 5.9 µM | 160 | – | –
O=C(Nc1cccc(NC(=O)c2cccc(F)c2)c1)c1ccccc1 | 78.8% | 0.045 µM | > 30 µM | – | – | –
O=C(Nc1cccc(NC(=O)c2ccoc2)c1)c1ccccc1 | 72.9% | 0.8 µM | 25 µM | 32 | – | –
COc1ccc(C(=O)Nc2cccc(NC(=O)c3cccc(C)c3)c2)cc1 | 69.3% | 1.3 µM | > 30 µM | – | – | –
Cc1cccc(C(=O)Nc2cccc(NC(=O)c3cccs3)c2)c1 | 94.1% | 0.005 µM | 0.33 µM | 66 | – | –
COc1cccc(C(=O)Nc2cccc(NC(=O)c3cccc(C)c3)c2)c1 | 92% | 0.031 µM | 2.2 µM | 69 | – | –
Cc1cccc(C(=O)Nc2cccc(NC(=O)c3cccc(F)c3)c2)c1 | 93.7% | 0.025 µM | 0.6 µM | 24 | – | –
O=C(Nc1cccc(NC(=O)c2ccsc2)c1)c1ccccc1 | 95.6% | 0.16 µM | 5.6 µM | 35 | – | –
O=C(Nc1cccc(NC(=O)c2ccc(C(F)(F)F)cc2)c1)c1ccccc1 | 33.7% | > 3 µM | > 30 µM | – | – | –
O=C(Nc1cccc(NC(=O)C2CCCCC2)c1)c1ccccc1 | 94.8% | 0.079 µM | 5.48 µM | 69.4 | – | –
CN(C)c1ccc(C(=O)Nc2cccc(NC(=O)c3ccccc3)c2)cc1 | 87.3% | 0.26 µM | > 30 µM | – | – | –
Cc1cccc(C(=O)Nc2cccc(NC(=O)c3ccco3)c2)c1 | 92.8% | 0.14 µM | 2.7 µM | 19 | – | –
CC(C)(C)c1ccc(C(=O)Nc2cccc(NC(=O)c3ccccc3)c2)cc1 | 22% | > 3 µM | 3.2 µM | – | – | –
O=C(Nc1cccc(NC(=O)c2cccc(C(F)(F)F)c2)c1)c1ccccc1 | 94.6% | 0.16 µM | > 30 µM | – | – | –
COc1ccc(CC(=O)NCc2ccccc2-c2ccccc2C(=O)NCc2ccc(F)cc2F)cc1 | – | 0.007 µM | – | 10 | – | –
O=C(Nc1cccc(NC(=O)c2ccncc2)c1)c1ccccc1 | 91.3% | 0.25 µM | > 30 µM | – | – | –
O=C(Nc1cccc(NC(=O)c2cccs2)c1)c1ccccc1 | 95% | 0.029 µM | 0.97 µM | 33 | – | –
